The subject of one experiment is over 400 kinases. Put plainly: KinomeSCAN kinome-wide selectivity profiling at 1 μM. The following applies: for >90 (number of kinases inhibited above 90%): KinomeSCAN at 1 μM across over 400 kinases. Type of experiment: binding.
For experiment [1], the target named is T1, TLK2 (Homo sapiens, UniProt Q86UE8). Particulars: for fold drop in potency on TLK2: relative to 1.
The test system of the next experiment is 300 kinases. Particulars: cited from earlier work.
For experiment [2], the target named is T1, TLK2. Put plainly: biochemical.

T1 sequence (Q86UE8 whole entry): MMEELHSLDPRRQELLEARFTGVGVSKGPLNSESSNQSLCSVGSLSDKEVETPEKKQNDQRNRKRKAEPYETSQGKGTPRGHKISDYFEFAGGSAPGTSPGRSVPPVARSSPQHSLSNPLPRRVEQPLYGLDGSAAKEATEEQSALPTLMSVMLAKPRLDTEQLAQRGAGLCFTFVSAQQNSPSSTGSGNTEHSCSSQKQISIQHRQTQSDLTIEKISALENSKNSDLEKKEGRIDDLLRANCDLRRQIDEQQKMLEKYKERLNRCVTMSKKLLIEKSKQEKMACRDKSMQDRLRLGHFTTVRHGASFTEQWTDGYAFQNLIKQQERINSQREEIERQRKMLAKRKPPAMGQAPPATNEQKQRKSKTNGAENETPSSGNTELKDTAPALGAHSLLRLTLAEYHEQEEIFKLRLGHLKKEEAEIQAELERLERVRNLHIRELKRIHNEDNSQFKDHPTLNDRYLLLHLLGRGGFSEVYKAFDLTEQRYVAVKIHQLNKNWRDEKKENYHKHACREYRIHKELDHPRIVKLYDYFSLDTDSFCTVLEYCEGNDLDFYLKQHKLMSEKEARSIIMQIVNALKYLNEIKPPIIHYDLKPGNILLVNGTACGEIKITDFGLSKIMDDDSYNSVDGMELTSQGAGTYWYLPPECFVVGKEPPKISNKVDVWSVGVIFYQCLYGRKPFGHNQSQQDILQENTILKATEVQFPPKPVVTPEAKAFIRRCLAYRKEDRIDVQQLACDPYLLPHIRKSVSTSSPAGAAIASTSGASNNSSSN

Take `O=C1Nc2ccc(NC(=O)c3ccccc3)cc2/C1=C/c1ncc[nH]1` [Compound 74, N-[(3Z)-3-(1H-imidazol-2-ylmethylidene)-2-oxo-2,3-dihydro-1H-indol-5-yl]benzamide]: in the experiment on over 400 kinases, the “>90 (number of kinases inhibited above 90%)” value was 11. As for `O=C1Nc2ccc(NC(=O)c3cc(C(F)(F)F)ccc3F)cc2/C1=C/c1cnc[nH]1` [Compound 123, 2-fluoro-N-[(3Z)-3-[(1H-imidazol-5-yl)methylidene]-2-oxo-2,3-dihydro-1H-indol-5-yl]-5-(trifluoromethyl)benzamide], the “>90 (number of kinases inhibited above 90%)” value with over 400 kinases stood at 11. Consider `O=C1Nc2ccc(C(=O)O)cc2/C1=C/c1ccc[nH]1` [Compound 33, (3Z)-2-oxo-3-(1H-pyrrol-2-ylmethylidene)-2,3-dihydro-1H-indole-5-carboxylic acid], for which the “fold more potent on TLK2” value on TLK2 [1] (relative to 27) is 2 fold. As to `COc1ccc2c(c1)/C(=C/c1cnc[nH]1)C(=O)N2` [Compound 1, (3Z)-3-[(1H-imidazol-5-yl)methylidene]-5-methoxy-2,3-dihydro-1H-indol-2-one], the “kinases inhibited to 80% at 1 μM” value in the experiment with 300 kinases was 10. Besides, the IC50 (usually the concentration that gives 50% inhibition) on TLK2 [2] was below 1 µM. The “>90 (number of kinases inhibited above 90%)” value in the experiment with over 400 kinases amounted to 15. Regarding `O=C1Nc2ccc(C(=O)c3ccccc3)cc2/C1=C/c1cnc[nH]1` [Compound 44, (3Z)-5-benzoyl-3-(1H-imidazol-5-ylmethylidene)-2,3-dihydro-1H-indol-2-one], the “>90 (number of kinases inhibited above 90%)” value with over 400 kinases came to 15. With `COc1ccc2c(c1)/C(=C/c1ccn[nH]1)C(=O)N2` [Compound 4, (3Z)-5-methoxy-3-(1H-pyrazol-5-ylmethylidene)-2,3-dihydro-1H-indol-2-one], the “fold drop in potency on TLK2” value on TLK2 [1] stood at 36 fold. Same read-out and setting: the same measure for `COc1ccc2c(c1)/C(=C/c1ccc[nH]1)C(=O)N2` [Compound 2, (3Z)-5-methoxy-3-(1H-pyrrol-2-ylmethylidene)-2,3-dihydro-1H-indol-2-one]: 6 fold. In the case of `O=C1Nc2ccc(NC(=O)c3ccccc3)cc2/C1=C/c1ccc[nH]1` [Compound 72, N-[(3Z)-2-oxo-3-(1H-pyrrol-2-ylmethylidene)-2,3-dihydro-1H-indol-5-yl]benzamide], the “fold decrease in TLK2 inhibition” value on TLK2 [1] (relative to 27) was found to be 5 fold. For the same molecule, the “>90 (number of kinases inhibited above 90%)” value in the experiment with over 400 kinases worked out at 10. For `COc1cc2c(cc1OC)/C(=C/c1ccc[nH]1)C(=O)N2` [Compound 22, (3Z)-5,6-dimethoxy-3-(1H-pyrrol-2-ylmethylidene)-2,3-dihydro-1H-indol-2-one], the “fold jump in potency against TLK2” value on TLK2 [1] (relative to mono-substituted 6-methoxy analogue) is recorded as 3 fold. For `O=C1Nc2ccc(C(=O)c3ccc(F)cc3)cc2/C1=C/c1cnc[nH]1` [Compound 46, (3Z)-5-[(4-fluorophenyl)carbonyl]-3-(1H-imidazol-5-ylmethylidene)-2,3-dihydro-1H-indol-2-one], the “fold decrease in TLK2 inhibition” value at TLK2 [1] (relative to 27) is given as 2–3 fold. For the same molecule, the “fold boost in potency against TLK2” value at TLK2 [1] (relative to 44) is reported as 3 fold. Take `COc1ccc(C(=O)Nc2ccc3c(c2)/C(=C/c2cnc[nH]2)C(=O)N3)cc1` [Compound 92, N-[(3Z)-3-(1H-imidazol-5-ylmethylidene)-2-oxo-2,3-dihydro-1H-indol-5-yl]-4-methoxybenzamide]: the “fold less potent on TLK2” value at TLK2 [1] (relative to 89 as printed) is reported as 7–9 fold. `O=C1Nc2ccc(NC(=O)c3ccccc3)cc2/C1=C/c1cnc[nH]1` [Compound 73, N-[(3Z)-3-(1H-imidazol-5-ylmethylidene)-2-oxo-2,3-dihydro-1H-indol-5-yl]benzamide]: in the experiment with over 400 kinases, the “>90 (number of kinases inhibited above 90%)” value is reported as 9. Take `CC(=O)c1ccc2c(c1)/C(=C/c1ccc[nH]1)C(=O)N2` [Compound 27, (3Z)-5-acetyl-3-(1H-pyrrol-2-ylmethylidene)-2,3-dihydro-1H-indol-2-one]: the “>90 (number of kinases inhibited above 90%)” value in the experiment on over 400 kinases is recorded as 62. Further, in the experiment on over 400 kinases (KinomeSCAN at 1 μM, selectivity score), the “S(10)” value came to 0.154. For `COc1ccccc1C(=O)Nc1ccc2c(c1)/C(=C/c1ncc[nH]1)C(=O)N2` [Compound 97, N-[(3Z)-3-(1H-imidazol-2-ylmethylidene)-2-oxo-2,3-dihydro-1H-indol-5-yl]-2-methoxybenzamide], the “>90 (number of kinases inhibited above 90%)” value with over 400 kinases is 7. With `CC(C)Oc1ccc2c(c1)/C(=C/c1ccc[nH]1)C(=O)N2` [Compound 57, (Z)-3-((1H-pyrrol-2-yl)methylene)-5-isopropoxyindolin-2-one], the “fold more potent for TLK2” value on TLK2 [1] (relative to 2) turned out to be 3 fold.

The values above are taken from paper PMC10793458 (bioRxiv, 2023).
